Results on one molecule are retold here after US11446276B2, “Extreme low dose THC as a therapeutic and prophylactic agent for Alzheimer's disease” (University of South Florida, priority 2015, dated 2022).

Structures are written as SMILES. Entries after “also recorded” stand apart in the source; their conditions may differ.

One data set deals with CB1 receptor. The data set is described as follows: RT-PCR for CB1 receptor expression level. To be noted: cells treated with low doses of THC.
In data set [1] the test system is Aβ40 in N2a/AβPPswe cells. The data set is described as follows: Aβ40 ELISA after one or two THC administrations 24 hours apart. To be noted: FIG. 9B. It counts as cell-based, human. As to the method: Studies were conducted on multiple dosings of THC. N2a/AβPPswe cells, as discussed in Example 1, were suspended to 2×10^5/mL, 3 mL plated into each well, and grown in DMEM with 10% fetal bovine serum, 100 U/mL penicillin, 100 μg/mL streptomycin, and 400 μg/mL G418 (Invitrogen), at 37° C. in the presence of 5% CO2. N2a/AβPPswe cells were subcultured using trypsin, and pipetted numerous times to ensure cells were separated into individual cells. Cells were counted, as provided in Example 1, and proper amount of cell medium and fresh medium was added into new flasks according to the ratio of dilution. Pipetting was performed 10 times to homogenize cells, and 3 mL of cells were seeded into medium into each 6 well plate. When one pipette was used up, the cells were mixed in the flask before using them for the next pipette. Compounds were suspended in DMSO, as provided in Example 1.
12 hours after plating, cells were treated with various concentrations of Δ9-THC (T4764-1ML Sigma Aldrich, Merck KGaA; Darmstadt, Germany), with untreated N2a/AβPPswe cells used as a control. Multiple dosing regimens were carried out 24 hours after initial treatment. Treatment was then washed out, i.e. the medium was then removed from the cultures and 3 mL of media containing the treatment compounds were added. […]

In data set [2] the target is acetylcholinesterase (AChE) (Homo sapiens, UniProt P22303). To be noted: THC 50 μM; cited from earlier work.
Sequence of acetylcholinesterase (AChE) (P22303 32-614): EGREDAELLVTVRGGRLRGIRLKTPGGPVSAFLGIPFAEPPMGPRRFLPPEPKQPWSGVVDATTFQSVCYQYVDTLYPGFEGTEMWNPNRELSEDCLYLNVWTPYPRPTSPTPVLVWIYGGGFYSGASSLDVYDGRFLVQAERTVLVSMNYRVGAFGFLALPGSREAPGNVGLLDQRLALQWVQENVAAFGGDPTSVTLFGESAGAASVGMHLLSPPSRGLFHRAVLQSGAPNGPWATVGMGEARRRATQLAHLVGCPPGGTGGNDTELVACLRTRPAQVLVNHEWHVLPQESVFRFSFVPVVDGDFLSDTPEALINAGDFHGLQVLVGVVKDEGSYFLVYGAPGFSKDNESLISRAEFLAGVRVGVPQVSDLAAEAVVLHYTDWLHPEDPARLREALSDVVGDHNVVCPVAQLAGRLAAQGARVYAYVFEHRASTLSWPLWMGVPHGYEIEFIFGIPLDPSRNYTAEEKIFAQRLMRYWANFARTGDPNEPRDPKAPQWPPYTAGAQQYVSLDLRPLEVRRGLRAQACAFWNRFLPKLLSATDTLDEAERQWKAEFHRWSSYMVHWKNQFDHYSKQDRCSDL
The subject of data set [3] is phosphorylated Tau (pTau). The data set is described as follows: Western blot of phosphorylated Tau in N2a/AβPPswe cells. It counts as cell-based. As to the method: (§1) FIG. 6C is a western blot assay showing Tau and phosphorylated Tau (pTau) levels in N2a/AβPPswe treated with 25 nM THC, 2.5 nM THC, or 0.25 nM THC. Anti-Tau, anti-pTau and β-actin antibodies were used to detect Tau and pTau, and β-actin that served as the protein loading control.
(§2) FIG. 11C is a western blot assay showing Tau and phosphorylated Tau levels in N2a/AβPPswe treated as follows: untreated (CTRL, control), or 10^−5 M Melatonin with 2.5 nM THC, 10^−6 M Melatonin with 2.5 nM THC. Anti-Tau and anti-pTau antibodies were used to […] that served as the protein loading control.
(§3) Amyloid processing and ancillary amyloid protein effects were next tested. After stripping the Western, and restaining for AβPP, using anti-Tau (Chuanhai Cao, Tampa, Fla.), anti-pTau (Chuanhai Cao, Tampa, Fla.), and anti-β-actin antibodies (Cat #A54441, Sigma Aldrich, Merck KGaA; Darmstadt, Germany)) were used to detect Tau levels against a protein loading control (β-actin). After data was collected the membrane was stripped using a western blot striping buffer (Cat #21059, Thermo Fisher Scientific, Waltham, Mass.) and stained for AβPP using 6E10 antibody (Cat #803002, BioLegend, Inc., San Diego, Calif.). Anti-mouse secondary horseradish peroxidase (Cat #A9044, Sigma Aldrich, Merck KGaA; Darmstadt, Germany) secondary antibodies were used.
A general note: In western blotting, separated proteins are transferred to a membrane and probed.

The test system of the next data set is Tau. The data set can be described thus: Western blot of Tau in N2a/AβPPswe cells. It counts as cell-based. As to the method:
as §1, §2, §3

Another data set deals with T1, Aβ1-40 peptide (Homo sapiens, UniProt P05067).
T1 construct: purchased Biomer Technology, Pleasanton, Calif
T1 sequence (P05067 672-711): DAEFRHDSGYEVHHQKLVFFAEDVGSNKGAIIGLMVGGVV
The data set is described as follows: ThT assay of Aβ aggregation. It counts as biochemical. To be noted: THC 0.25-250 nM; Aβ1-40 1 μM; FIG. 3A. As to the method:
A ThT assay was conducted to examine the interaction between THC and Aβ, as ThT incorporates into Aβ when the amyloid protein aggregates, indicating whether there is a direct interaction between THC and Aβ aggregation.
Hexafluoroisopropanol-(HFIP) pretreated Aβ1-40 peptide (Biomer Technology, Pleasanton, Calif.). THC solution was prepared at concentration of 250 nM, 25 nM, 2.5 nM, and 0.25 nM in thioflavin T (ThT) (1.6 μg/mL dissolved in 20 mM Tris-HCL). The THC-ThT was added into black 96 well plates. Unaggregated Aβ peptide solution was thawed, diluted, and immediately added to wells, making the final concentration of Aβ1-40 at 1 μM. Control groups were setup as: 1) aggregation control; 2) control with ThT buffer only; and 3) Tris-HCl buffer only. Plate was mixed and fluorescence was read at 482 nm with excitation 440 nm with Biotek All-in-One plate reader. Fluorescence was screened for 2 hours with 5-minute intervals.

A further data set has as its system GSK-3β. The note with it: 10 mg/kg of body weight of THC; mice; cited from earlier work.
For the next data set, the system named is N2a/AβPPswe cells. The data set is described as follows: MTT toxicity assay. The note with it: 36 hours; different concentrations; versus untreated cells; FIG. 9A. (In general: Formazan colour is commonly taken as a measure of viable cells.)

With `CCCCCc1cc(O)c2c(c1)OC(C)(C)[C@@H]1CCC(C)=C[C@@H]21` [THC, Δ9-tetrahydrocannabinol], the “CB1 receptor expression level (RT-PCR)” value in the data set on CB1 receptor is recorded as “no significant upregulation”. Besides, the “Aβ40 (pg/ml) concentrations after one or two administrations” value in data set [1] (designated concentrations of THC) is recorded as “decreases Aβ40”. Further, the “Aβ40 in cells treated twice with THC 24 hours apart versus once” value in data set [1] (from 12 μM and higher concentrations) is “significant decrease in Aβ40 concentration compared to cells treated once; also recorded: even greater reduction in Aβ levels”. In data set [2], the “Inhibition of AChE” value is recorded as “competitively inhibits”. Further, the “Ratio of pTau:Tau among THC concentrations” value in data set [3] (2.5 nM THC, FIG. 8) is recorded as “peak of pTau:Tau ratio”. Besides, in data set [3] (25 nM, 2.5 nM, 0.25 nM THC, FIGS. 6C, 6D), the “Phosphorylated Tau levels, THC alone” value is given as “reduction by THC in a dose-dependent manner; also recorded: lowers the phosphorylation of tau in a dose dependent manner; also recorded: decreases phosphorylated Tau”. Moreover, the “Ratio of phosphorylated Tau to Tau, THC alone” value in data set [3] (25 nM, 2.5 nM, 0.25 nM THC, FIGS. 8, 13) is on record as “increase the ratio of pTau:Tau; also recorded: increase in phosphorylated Tau; also recorded: increases phosphorylated Tau”. Further, the “Tau level among THC concentrations” value in the data set with Tau (2.5 nM THC, FIGS. 6C, 7) is on record as “lowest level of Tau”. In addition, the “Tau protein levels (standardized to β-actin), THC alone” value with Tau (25 nM, 2.5 nM, 0.25 nM THC, FIG. 7) is given as “lowers the production of Tau; also recorded: reduces Tau protein levels”. Besides, at Aβ1-40 peptide, the “Thioflavin T fluorescence intensity / Aβ aggregation” value is “lowers Aβ aggregation; also recorded: dose-dependent decrease; also recorded: inhibits Aβ40 aggregation”. Further, the “Phosphorylation of GSK-3β” value in the data set on GSK-3β is recorded as “increased phosphorylation of GSK-3β”. Also, in the data set on N2a/AβPPswe cells, the “Toxicity (reduction of MTT, OD)” value is on record as “no significant difference from the control; also recorded: no toxicity; also recorded: lack of toxicity”.
